Molecules are shown by their SMILES.

Drawing on patent publication EP4703358A1, “BENZO SIX-MEMBERED HETEROCYCLIC GSPT1 PROTEIN DEGRADATION AGENT AND USE THEREOF” (China Pharmaceutical University, priority 2023, dated 2024), this text covers percent GSPT1 degradation and IC50 for 22 compounds.

One test has as its target T1, GSPT1 protein (Homo sapiens, UniProt P15170+Q96SW2).
T1 construct: host or cells: KG-1 cells
As to the kind of experiment: Degradation of GSPT1 in KG-1 cells (Western blot). Details: percent GSPT1 degradation: dose or concentration left out as unconfirmed. To be noted: for percent GSPT1 degradation at 0.2 µM: KG-1 cells, compound concentration 200 nM, 4 hours. It counts as cell-based. The procedure:
KG-1 cells (ATCC) were grown in an IMDM culture medium (containing 20% FBS). After centrifugation and counting, the cell concentration was adjusted. The cells were plated onto 6-well plates at 10^6 cells/well, with 1350 µL per well. 150 µL of DMSO and the test compounds of the present disclosure (compound concentration: 200 nM) were added. The plates were incubated in an incubator at 37 °C with 5% CO2 for 4 hours. The cells were centrifuged, and the culture medium was discarded. PBS was added to wash the cells and then discarded. Whole cell lysates were prepared using a protease inhibitor cocktail (100×, Fude Biological), a protein phosphatase inhibitor cocktail (100×, Fude Biological), SuperNuclease (Beyotime), and a high-intensity RIPA lysis buffer (Thermo Fisher) and placed on ice for 30 minutes. After centrifugation, the cell debris precipitates were discarded, and the whole cell lysate supernatants were collected and transferred to new centrifuge tubes. After a BCA protein assay, samples were prepared using a 5× loading buffer (Thermo Fisher). The samples were subjected to protein electrophoresis separation in a 4-20% precast gel (SDS-PAGE gel), transferred to a PVDF membrane, then blocked with 5% NFDM/TBST at room temperature for 1 hour, incubated overnight with primary antibodies at 4 °C, and incubated with a secondary antibody at room temperature for 2 hours the next day. Signals were detected using a MINICHEMITM imaging system.
Primary antibodies: • Anti-GSPT1: Abcam ab234433 • Anti-beta actin: Fude Biological FD0060
Secondary antibody: Anti-rabbit peroxidase-linked secondary antibody: Fude Biological FDG007
The degradation effects of the compounds on GSPT1 protein are shown in Table 1, where A represents a GSPT1 protein degradation percentage of no less than 80%, B represents a degradation percentage of less than 80% but no less than 50%, C represents a degradation percentage of less than 50% but no less than 25%, and D represents a degradation percentage of less than 25%. Table 1. The degradation of GSPT1 protein by compounds
(In western blotting, separated proteins are transferred to a membrane and probed.)

A further test deals with KG-1 cells. As to the kind of experiment: Antiproliferative activity against KG-1 cells (CCK8). It counts as cell-based. To be noted: Homo sapiens, 72 hours. The procedure:
KG-1 cells in the logarithmic growth phase were diluted in a culture medium (RPMI + 10% FBS) and plated onto 96-well plates at 5000 cells/well, and the plates were incubated in an incubator at 37 °C with 5% CO2 for 24 hours. 10 mM stock solutions of the test compounds of the present disclosure in DMSO were prepared and diluted with the culture medium to set 9 concentration gradients. Three replicate wells were set for each concentration. After compound addition, the plates were incubated in an incubator at 37 °C with 5% CO2 for 72 hours. The cell proliferation was assessed using the CCK8 method. The cell growth inhibition IC50 values of the compounds were determined using an enzyme labeling method. The IC50 values were calculated using GraphPad Prism 7 software.
The antiproliferative activity of the compounds against KG-1 cells is shown in Table 2, where A represents IC50 < 1 nM, B represents 1 ≤ IC50 < 10 nM, C represents 10 nM ≤ IC50 < 100 nM, D represents 100 nM ≤ IC50 < 1000 nM, and E represents IC50 ≥ 1000 nM. Table 2. The antiproliferative activity of compounds against KG-1 cells

T1 sequence (P15170 whole entry): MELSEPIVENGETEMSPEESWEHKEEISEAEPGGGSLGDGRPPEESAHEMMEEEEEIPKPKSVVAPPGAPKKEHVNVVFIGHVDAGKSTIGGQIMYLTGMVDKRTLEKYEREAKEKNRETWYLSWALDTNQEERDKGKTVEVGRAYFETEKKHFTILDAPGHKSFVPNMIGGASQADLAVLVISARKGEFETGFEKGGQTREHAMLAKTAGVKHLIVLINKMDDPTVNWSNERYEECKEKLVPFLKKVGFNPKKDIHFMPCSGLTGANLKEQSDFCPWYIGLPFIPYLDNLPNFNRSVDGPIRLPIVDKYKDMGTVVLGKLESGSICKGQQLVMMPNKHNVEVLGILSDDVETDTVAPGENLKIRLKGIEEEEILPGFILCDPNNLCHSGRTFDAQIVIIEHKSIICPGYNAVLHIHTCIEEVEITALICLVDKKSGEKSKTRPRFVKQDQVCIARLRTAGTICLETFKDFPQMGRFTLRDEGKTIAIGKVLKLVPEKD
T1 sequence (Q96SW2 whole entry): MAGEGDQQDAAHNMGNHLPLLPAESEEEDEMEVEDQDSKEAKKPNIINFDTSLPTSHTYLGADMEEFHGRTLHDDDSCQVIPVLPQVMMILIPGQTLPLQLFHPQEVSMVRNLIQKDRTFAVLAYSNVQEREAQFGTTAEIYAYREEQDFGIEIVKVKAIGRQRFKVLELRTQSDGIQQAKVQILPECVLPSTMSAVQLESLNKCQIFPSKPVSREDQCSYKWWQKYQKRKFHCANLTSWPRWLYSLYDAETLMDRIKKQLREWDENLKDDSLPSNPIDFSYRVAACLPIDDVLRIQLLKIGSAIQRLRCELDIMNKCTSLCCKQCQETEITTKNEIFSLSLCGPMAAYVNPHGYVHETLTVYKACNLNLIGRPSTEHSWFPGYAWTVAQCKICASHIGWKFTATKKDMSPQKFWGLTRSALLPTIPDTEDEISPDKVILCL
T1 sequence (Q16531 whole entry partner): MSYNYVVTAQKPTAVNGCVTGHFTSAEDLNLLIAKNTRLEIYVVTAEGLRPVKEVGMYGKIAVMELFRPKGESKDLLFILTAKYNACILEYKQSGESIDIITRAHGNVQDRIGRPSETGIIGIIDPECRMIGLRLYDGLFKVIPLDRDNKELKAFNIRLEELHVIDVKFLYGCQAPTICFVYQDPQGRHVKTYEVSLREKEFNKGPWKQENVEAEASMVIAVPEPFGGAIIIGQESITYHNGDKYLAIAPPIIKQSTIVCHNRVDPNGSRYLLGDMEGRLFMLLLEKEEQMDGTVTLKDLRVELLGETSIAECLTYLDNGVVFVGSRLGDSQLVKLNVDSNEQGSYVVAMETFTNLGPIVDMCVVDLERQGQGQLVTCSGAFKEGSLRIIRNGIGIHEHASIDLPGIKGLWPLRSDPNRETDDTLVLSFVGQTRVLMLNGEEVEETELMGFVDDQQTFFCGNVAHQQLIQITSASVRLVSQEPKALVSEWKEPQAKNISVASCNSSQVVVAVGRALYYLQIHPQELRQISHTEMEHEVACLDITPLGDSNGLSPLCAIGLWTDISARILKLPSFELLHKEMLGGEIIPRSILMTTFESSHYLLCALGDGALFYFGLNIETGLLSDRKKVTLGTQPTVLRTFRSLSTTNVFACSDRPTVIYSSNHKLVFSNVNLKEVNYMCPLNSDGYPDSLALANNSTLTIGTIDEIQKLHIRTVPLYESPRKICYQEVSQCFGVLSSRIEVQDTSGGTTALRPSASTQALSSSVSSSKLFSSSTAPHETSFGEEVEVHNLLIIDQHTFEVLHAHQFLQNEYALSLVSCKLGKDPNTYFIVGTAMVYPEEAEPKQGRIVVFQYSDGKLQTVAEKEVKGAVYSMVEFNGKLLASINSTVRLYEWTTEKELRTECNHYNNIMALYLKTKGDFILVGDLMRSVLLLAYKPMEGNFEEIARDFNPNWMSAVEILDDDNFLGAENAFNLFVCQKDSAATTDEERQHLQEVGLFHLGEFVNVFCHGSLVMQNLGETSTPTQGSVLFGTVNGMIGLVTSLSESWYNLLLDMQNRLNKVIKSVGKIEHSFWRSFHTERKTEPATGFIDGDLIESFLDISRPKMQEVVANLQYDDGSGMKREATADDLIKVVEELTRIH

One may read the IC50 as the concentration that gives 50% inhibition. Compound `Cc1cc2c(cc1F)OCC(C(=O)NCc1ccc3c(c1)CN(C1CCC(=O)NC1=O)C3=O)=C2` (centres unmarked) [Compound A-30, N-((2-(2,6-Dioxopiperidin-3-yl)-1-oxoisoindolin-5-yl)methyl)-7-fluoro-6-methyl-2H-chromene-3-carboxamide] had a percent GSPT1 degradation at 0.2 µM on GSPT1 protein of over 80%. Also, the IC50 in the test on KG-1 cells was 10 to 100 nM.
On the same counts, the results for `O=C1CCC(N2Cc3cc(CNC(=O)C4=Cc5cccc(OC(F)(F)F)c5OC4)ccc3C2=O)C(=O)N1` (centres unmarked) [Compound A-19, N-((2-(2,6-Dioxopiperidin-3-yl)-1-oxoisoindolin-5-yl)methyl)-8-trifluoromethoxy-2H-chromene-3-carboxamide] are over 80% and 1 to 10 nM.
The like results for `O=C1CCC(N2Cc3cc(CNC(=O)C4=Cc5cc(-c6ccccc6)ccc5OC4)ccc3C2=O)C(=O)N1` (centres unmarked) [Compound A-17, N-((2-(2,6-Dioxopiperidin-3-yl)-1-oxoisoindolin-5-yl)methyl)-6-phenyl-2H-chromene-3-carboxamide] were, in that order, 50 to 80% and 100 to 1000 nM.
The like results for `O=C1CCC(N2Cc3cc(CNC(=O)C4COc5ccc(F)cc5C4)ccc3C2=O)C(=O)N1` (centres unmarked) [Compound B-2, N-((2-(2,6-Dioxopiperidin-3-yl)-1-oxoisoindolin-5-yl)methyl)-6-fluorochromane-3-carboxamide] were, in that order, over 80% and 1 to 10 nM.
For the compound `C=CC(=O)Nc1ccc2c(c1)C=C(C(=O)NCc1ccc3c(c1)CN(C1CCC(=O)NC1=O)C3=O)CO2` (centres unmarked) [Compound A-24, N-((2-(2,6-Dioxopiperidin-3-yl)-1-oxoisoindolin-5-yl)methyl)-6-(acrylamido)-2H-chromene-3-carboxamide], on GSPT1 protein, the percent GSPT1 degradation at 0.2 µM was 25 to 50%. Also, the IC50 with KG-1 cells is at least 1000 nM.
On the same counts, the results for `N#Cc1ccc2c(c1)C=C(C(=O)NCc1ccc3c(c1)CN(C1CCC(=O)NC1=O)C3=O)CO2` (centres unmarked) [Compound A-11, N-((2-(2,6-Dioxopiperidin-3-yl)-1-oxoisoindolin-5-yl)methyl)-6-cyano-2H-chromene-3-carboxamide] are over 80% and 10 to 100 nM.
On the same counts, the results for `COc1cccc2c1OCC(C(=O)NCc1ccc3c(c1)CN(C1CCC(=O)NC1=O)C3=O)=C2` (centres unmarked) [Compound A-20, N-((2-(2,6-Dioxopiperidin-3-yl)-1-oxoisoindolin-5-yl)methyl)-8-methoxy-2H-chromene-3-carboxamide] are over 80% and 1 to 10 nM.
The like results for `O=C1CCC(N2Cc3cc(CNC(=O)C4=Cc5cccc(C(F)(F)F)c5OC4)ccc3C2=O)C(=O)N1` (centres unmarked) [Compound A-18, N-((2-(2,6-Dioxopiperidin-3-yl)-1-oxoisoindolin-5-yl)methyl)-8-trifluoromethyl-2H-chromene-3-carboxamide] were, in that order, over 80% and under 1 nM.
As to `CC(C)(C)c1ccc2c(c1)C=C(C(=O)NCc1ccc3c(c1)CN(C1CCC(=O)NC1=O)C3=O)CO2` (centres unmarked) [Compound A-16, N-((2-(2,6-Dioxopiperidin-3-yl)-1-oxoisoindolin-5-yl)methyl)-6-tert-butyl-2H-chromene-3-carboxamide], on GSPT1 protein, the percent GSPT1 degradation at 0.2 µM lay in the range of 50 to 80%. For the same compound, the IC50 with KG-1 cells lay within 10 to 100 nM.
With `Cc1cccc2c1OCC(C(=O)NCc1ccc3c(c1)CN(C1CCC(=O)NC1=O)C3=O)=C2` (centres unmarked) [Compound A-21, N-((2-(2,6-Dioxopiperidin-3-yl)-1-oxoisoindolin-5-yl)methyl)-8-methyl-2H-chromene-3-carboxamide], the percent GSPT1 degradation at 0.2 µM on GSPT1 protein was over 80%. The compound also showed an IC50 with KG-1 cells of 1 to 10 nM.
The like results for `Cc1cc2c(cc1C)OCC(C(=O)NCc1ccc3c(c1)CN(C1CCC(=O)NC1=O)C3=O)=C2` (centres unmarked) [Compound A-37, N-((2-(2,6-Dioxopiperidin-3-yl)-1-oxoisoindolin-5-yl)methyl)-6,7-dimethyl-2H-chromene-3-carboxamide] were, in that order, over 80% and 10 to 100 nM.
For `CC(=O)Nc1ccc2c(c1)C=C(C(=O)NCc1ccc3c(c1)CN(C1CCC(=O)NC1=O)C3=O)CO2` (centres unmarked) [Compound A-23, N-((2-(2,6-Dioxopiperidin-3-yl)-1-oxoisoindolin-5-yl)methyl)-6-(acetamido)-2H-chromene-3-carboxamide], the percent GSPT1 degradation at 0.2 µM at GSPT1 protein was in the range of 25 to 50%. In addition, the IC50 with KG-1 cells is at least 1000 nM.
The like results for `Cc1cc(F)cc2c1OCC(C(=O)NCc1ccc3c(c1)CN(C1CCC(=O)NC1=O)C3=O)=C2` (centres unmarked) [Compound A-31, N-((2-(2,6-Dioxopiperidin-3-yl)-1-oxoisoindolin-5-yl)methyl)-6-fluoro-8-methyl-2H-chromene-3-carboxamide] were, in that order, over 80% and 1 to 10 nM.
The like results for `O=C1CCC(N2Cc3cccc(CNC(=O)C4=Cc5cc(OC(F)(F)F)ccc5OC4)c3C2=O)C(=O)N1` (centres unmarked) [Compound A-39, N-((2-(2,6-Dioxopiperidin-3-yl)-3-oxoisoindolin-4-yl)methyl)-6-(trifluoromethoxy)-2H-chromene-3-carboxamide] were, in that order, 50 to 80% and 10 to 100 nM.
As to `O=C1CCC(N2Cc3c(CNC(=O)C4=Cc5cc(OC(F)(F)F)ccc5OC4)cccc3C2=O)C(=O)N1` (centres unmarked) [Compound A-41, N-((2-(2,6-Dioxopiperidin-3-yl)-1-oxoisoindolin-4-yl)methyl)-6-(trifluoromethoxy)-2H-chromene-3-carboxamide], at GSPT1 protein, the percent GSPT1 degradation at 0.2 µM lay in the range of 50 to 80%. Moreover, the IC50 in the test on KG-1 cells is 10 to 100 nM.
The like results for `O=C1CCC(N2Cc3ccc(CNC(=O)C4=Cc5cc(OC(F)(F)F)ccc5OC4)cc3C2=O)C(=O)N1` (centres unmarked) [Compound A-40, N-((2-(2,6-Dioxopiperidin-3-yl)-3-oxoisoindolin-5-yl)methyl)-6-(trifluoromethoxy)-2H-chromene-3-carboxamide] were, in that order, 50 to 80% and 10 to 100 nM.
The like results for `O=C1CCC(N2Cc3cc(CNC(=O)C4=Cc5cc(NC(=O)C6CCC6)ccc5OC4)ccc3C2=O)C(=O)N1` (centres unmarked) [Compound A-27, N-((2-(2,6-Dioxopiperidin-3-yl)-1-oxoisoindolin-5-yl)methyl)-6-(cyclobutanecarboxamido)-2H-chromene-3-carboxamide] were, in that order, under 25% and 100 to 1000 nM.
On the same counts, the results for `Cc1cccc2c1C=C(C(=O)NCc1ccc3c(c1)CN(C1CCC(=O)NC1=O)C3=O)CO2` (centres unmarked) [Compound A-22, N-((2-(2,6-Dioxopiperidin-3-yl)-1-oxoisoindolin-5-yl)methyl)-5-methyl-2H-chromene-3-carboxamide] are over 80% and 1 to 10 nM.
On GSPT1 protein, `O=C1CCC(N2Cc3cc(CNC(=O)C4=Cc5c(F)cc(F)cc5OC4)ccc3C2=O)C(=O)N1` (centres unmarked) [Compound A-34, N-((2-(2,6-Dioxopiperidin-3-yl)-1-oxoisoindolin-5-yl)methyl)-5,7-difluoro-2H-chromene-3-carboxamide] came in with a percent GSPT1 degradation at 0.2 µM of over 80%. In the test on KG-1 cells, this compound registered an IC50 of 1 to 10 nM.
On the same counts, the results for `O=C1CCC(N2Cc3cc(CNC(=O)C4=Cc5cccc(F)c5OC4)ccc3C2=O)C(=O)N1` (centres unmarked) [Compound A-5, N-((2-(2,6-Dioxopiperidin-3-yl)-1-oxoisoindolin-5-yl)methyl)-8-fluoro-2H-chromene-3-carboxamide] are over 80% and 1 to 10 nM.
In the case of `COc1cccc2c1C=C(C(=O)NCc1ccc3c(c1)CN(C1CCC(=O)NC1=O)C3=O)CO2` (centres unmarked) [Compound A-9, N-((2-(2,6-Dioxopiperidin-3-yl)-1-oxoisoindolin-5-yl)methyl)-5-methoxy-2H-chromene-3-carboxamide], the percent GSPT1 degradation at 0.2 µM on GSPT1 protein was over 80%. Also, the IC50 with KG-1 cells was 1 to 10 nM.
For the compound `O=C1CCC(N2Cc3cc(CNC(=O)C4=Cc5cc(Cl)ccc5OC4)ccc3C2=O)C(=O)N1` (centres unmarked) [Compound A-6, N-((2-(2,6-Dioxopiperidin-3-yl)-1-oxoisoindolin-5-yl)methyl)-6-chloro-2H-chromene-3-carboxamide], the percent GSPT1 degradation on GSPT1 protein (KG-1, 4 h, read-out: GSPT1 degradation) is over 80%. This compound also showed an IC50 with KG-1 cells of 10 to 100 nM.
